Series [1] has as its target T1, AChE (Electrophorus electricus, UniProt O42275).
T1 construct: extracted from Electrophorus electricus (electric eel); purchased Sigma-Aldrich; host or cells: Electrophorus electricus (extracted)
Put plainly: biochemical. Also on record: species or system Electrophorus electricus (electric eel). As to the method: The electronic spectra and the AChE inhibition assays were performed in a 1-cm path length quartz cell with a Perkin Elmer Lambda 35 spectrophotometer equipped with a temperature programmer PTP1 + 1 Peltier System (T = 25.0 ± 0.1 °C). The enzyme AChE 500 U, extracted from Electrophorus electricus (electric eel), was purchased from Sigma-Aldrich.
The enzymatic activity of AChE was determined using an adaptation of the Ellman’s method, as described previously[29]^,[32]. Firstly, a stock solution of AChE was prepared by dissolving enzyme 500 U in 10 mL of tris(hydroxymethyl)aminomethane (TRIS) buffer (50 mM, pH 8). Then, 4–(2-hydroxyethyl)-1-piperazineethanesulfonic acid (HEPES) buffer was used for further dilution of the enzyme solution therefore obtaining the final working solution of AChE. The assay solution consisted of 374 µL of HEPES buffer (50 mM and pH 8.0), a variable volume (10–50 µL) of the compound’s stock solution (1 mg/mL of MeOH), 476 µL of 3 mM bis(3-carboxy-4-nitrophenyl) disulphide (DTNB), 25 µL of AChE stock solution and the necessary amount of methanol to attain the same volume of sample mixture in a 1 mL cuvette. After mixing, samples were left to incubate for 15 min and then 75 µL of 16 mM acetylthiocholine iodide (AChI) solution was added and immediately the reaction was monitored at 405 nm for 5 min. Firstly, enzyme activity was determined by measuring the rate of enzymatic reaction in solution by recording absorbance (with or without enzyme) at 405 nm. To calculate the percent inhibition of AChE, the enzyme activity in the presence of increasing concentrations of the test compound, as well as for a blank reaction (methanol without compounds), were measured at 405 nm.
Where v1is the initial reaction rate in the presence of the inhibitor and v0 is the initial rate of the control reaction. The curves of inhibition were obtained using a plot of percentage of enzymatic inhibition versus inhibitor concentration, and a calibration curve was obtained from which the linear regression parameters were obtained.

The test system of series [2] is SH-SY5Y cells. Put plainly: Dose-response screening for non-toxic concentrations, MTT reduction assay. It is filed as cell-based, human. The settings on record: 10 µM to 40 µM, 25 h. The procedure: The neuroprotective effect of these new multi-target drugs designed for AD was evaluated using SH-SY5Y cells treated with Aβ1-42 peptides or ascorbate/iron. For each compound we performed a dose-response curve to select a non-toxic concentration (Figure 7).
Figure 7. Dose-response screening to select non-toxic concentrations of TAC-BF hybrids. Cells were treated with varying concentration of TAC-BF conjugates (from 10 μM to 40 μM) for 25 h and cell viability was determined using the MTT reduction assay.
SH-SY5Y human neuroblastoma cell line (ATCC-CRL-2266) is grown in Dulbecco’s modified Eagle’s medium (DMEM), and were obtained from Gibco-Invitrogen (Life Technologies Ltd, UK) with 10% heat inactivated foetal calf serum, containing 50 U/mL penicillin and 50 µg/mL streptomycin, under a humidified atmosphere of 95% air- 5% CO2 at 37 °C. Cells were plated at 0.12 × 10^6 cells/mL for cell viability assay. The tested compounds (18, 19, 20, 21, 23 and 24) were dissolved in DMSO at a concentration of 50 mM and aliquots were stored at −20 °C. We performed a dose-response screening (from 10 µM to 40 µM) in order to choose the highest non-toxic concentration. As a result we selected: 20 µM final concentrations for compounds 18, 19, 20 and 23; 20 µM final concentration for compound 19; 35 µM final concentration for compounds 21 and 24. […] The compounds were added to the cell media 1 h before the incubation with Aβ1-42 or L-ascorbic acid/ferrous sulphate. Aβ1-42 or L-ascorbic acid/ferrous sulphate where incubated alone or with the compound for an additional 24 h. Aβ1-42 was prepared as 276.9 µM stock in sterile water and added to the medium at 2.5 µM final concentration. Ferrous sulphate was freshly prepared as 0.36 M stock in water and added to the medium at 500 µM final concentration. L-Ascorbic Acid was freshly prepared as 80 mM stock in water and added to the medium at 5 mM final concentration. Aβ1-42 was purchased from Bachem (Torrance, CA, USA) and ferrous sulphate and L-ascorbic acid from Sigma Chemical Co (St. Louis, MO, USA).
Cell viability was determined by the MTT (3–(4,5-dimethylthiazol-2-yl)-2,5-diphenyltetrazolium bromide) reduction test. In viable cells, the enzyme succinate dehydrogenase metabolises MTT into a formazan that absorbs light at 570 nm. Following the cell treatment protocol, the medium was aspirated and 0.5 mL MTT (0.5 mg/mL) was added to each well. The plate was then incubated at 37 °C for 1 h 30 min protected from light. At the end of the incubation period, the formazan precipitates were solubilised with 0.5 mL of acidic isopropanol (0.04 M HCl/isopropanol). The absorbance was measured at 570 nm[51]. Cell reduction ability was expressed as a percentage of untreated control cells.
In general terms: Formazan colour is commonly taken as a measure of viable cells.

Series [3] addresses T2, Aβ1-42 (Homo sapiens, UniProt P05067).
T2 construct: Amyloid β-peptide (1–42), Aβ1-42, was purchased from GeneCust; purchased GeneCust
Put plainly: biochemical. To be noted: read-out: Aβ aggregation inhibition, Self-Aβ aggr. From the text:
(§1) The Aβ amyloid plaques are one of the main hallmarks of AD and they result from over production and aggregation of β-amyloid peptide, which can accumulate outside the neurons, by self-mediated or Cu^2+-induced process, interfering with the synaptic impairment, neurotransmission and memory. Therefore, anti-AD drugs have been designed aimed to disrupt and disaggregate the Aβ’s fibrils into monomers, obtaining non-toxic forms of β-secretase’s products. To assess the effect of these new hybrids in the inhibition of amyloid peptide aggregation, a selection of the compounds was in vitro assayed, based on the thioflavin T (ThT) method. Indeed ThT is a histochemical dye able to create ionic or hydrophobic interactions with the peptide β–sheets, the predominant secondary structure of the amyloid fibrils in aqueous solutions[36]. This binding interactions can be monitored by fluorimetry since the presence of ThT-fibrils increases the absorbance and the emission of the ThT dye, and induces red shifts on the absorbance (from 385 to 446 nm) and emission peaks (from 445 to 485 nm)[14]. All the measurements were performed after incubation of the self-mediated and Cu^2+-induced Aβ aggregates in the presence/absence of the herein studied compounds. […]. […] This may be rationalised on the basis of their copper chelating capacity, as previously shown by other metal chelating compounds[14]^,[38]. Furthermore, despite some exceptions (e.g. 20 and 24), the increase in linker length and the chloro TAC substitution induce some small negative effects in the inhibition of Aβ self-aggregation.
(§2) For the study of the β-amyloid (Aβ) aggregation, the ThT fluorescence assay was performed using a Varian Cary Eclipse fluorimeter at the following wavelengths: excitation (446 nm) and emission (485 nm). Amyloid β-peptide (1–42), Aβ1-42, was purchased from GeneCust as a lyophilised powder stored at −20 °C. TEM assays were performed with a Hitachi H8100 transmission electron microscope with a LaB6 filament (200 kV, 10000–20000 × magnification) at MicroLab/IST.
(§3) Among all the methods to measure the aggregation of Aβ1-42, the assay based on Thioflavin T (ThT) is the standard procedure based on the fluorescence of this dye[49]^,[50]. This test is performed with Aβ1-42 peptide previously prepared by dissolving it in 1,1,1,3,3,3–hexafluoro-2-propanol (HFIP), an organic solvent useful to solubilise and monomerize the β–sheet protein aggregates and reserve them in the fridge. Films are re-dissolved in an Eppendorf tube with a fresh solution of a mixture of CH3CN/Na2CO3/NaOH, to have a stable stock solution, and afterwards, added to an optimised fibrillation phosphate buffer. The samples were prepared using MeOH (1 mg/mL) as solvent, followed by incubation in a water bath for 24 h at 37 °C with gentle shaking. After incubation, the samples were added to a 96-well plate (BD Falcon) with 180 µL of 5 µM ThT in 50 mM glycine-NaOH (pH 8.5) buffer. Blank samples were prepared for each concentration in a similar way, devoid of peptide. After 5-min incubation with the dye, the ThT fluorescence was measured at 446 nm (excitation) and 485 nm (emission).

The nature of series [4]: Radical scavenging (anti-oxidant) activity, DPPH method. To be noted: DPPH in methanol, 30 min, room temperature. The class given is physicochemical. The procedure:
A selection of the newly synthesised hybrids was tested for their radical scavenging activity (anti-oxidant activity, EC50), based on their interaction with the 2,2-diphenyl-1-picrylhydrazyl (DPPH) free radical, as previously described.
The anti-oxidant capacity or, more precisely, radical scavenging activity based on the electron and proton donation ability, was evaluated by the DPPH method previously described[29]^,[46]. To a 2.5 mL solution of DPPH (0.002%) in methanol, solutions of each compound were added in different volumes to obtain different concentrations in a 3.5 mL final volume. The samples were incubated for 30 min at room temperature. The absorbance was measured at 517 nm against the corresponding blank (methanol). The antioxidant activity was calculated by Eq. (1)^29. (1) %AA = ((ADPPH−Asample)/ADPPH) × 100
The tests were carried out in triplicate. The compound concentration providing 50% of antioxidant activity (EC50) was obtained by plotting the antioxidant activity against the compound concentration.
(DPPH is a stable violet radical that fades when it is reduced.)

For series [5], the target named is T2, Aβ1-42. Put plainly: Inhibition of Cu2+-induced Aβ1-42 aggregation, thioflavin T fluorescence. The class given is biochemical. To be noted: Aβ42 aggregation with copper (40 µM); inhibitor 80 µM; ThT fluorescence; read-out: Aβ aggregation inhibition, Cu-ind Aβ aggr.
Description: as §1, §2
as §3, with “The samples were prepared using MeOH (1 mg/mL) as solvent, followed by incubation in a water bath for 24 h at 37 °C with gentle shaking. After incubation, the samples were added to a 96-well plate (BD Falcon) with 180 µL of 5 µM ThT in 50 mM glycine-NaOH (pH 8.5) buffer. Blank samples were prepared for each concentration in a similar way, devoid of peptide.” left out

The mark [6] stands for this setting: AChE from Electric eel, mean of five independent experiments, read-out: AChE inhibition IC50.
[7] abbreviates: self-mediated Aβ42 aggregation without copper, inhibitor 80 µM, ThT fluorescence.

Like-named read-outs stand apart in the source and are kept apart here.

T2 sequence (P05067 672-713 limits assumed): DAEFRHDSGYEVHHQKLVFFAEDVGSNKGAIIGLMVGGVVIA
T1 sequence (O42275 24-633): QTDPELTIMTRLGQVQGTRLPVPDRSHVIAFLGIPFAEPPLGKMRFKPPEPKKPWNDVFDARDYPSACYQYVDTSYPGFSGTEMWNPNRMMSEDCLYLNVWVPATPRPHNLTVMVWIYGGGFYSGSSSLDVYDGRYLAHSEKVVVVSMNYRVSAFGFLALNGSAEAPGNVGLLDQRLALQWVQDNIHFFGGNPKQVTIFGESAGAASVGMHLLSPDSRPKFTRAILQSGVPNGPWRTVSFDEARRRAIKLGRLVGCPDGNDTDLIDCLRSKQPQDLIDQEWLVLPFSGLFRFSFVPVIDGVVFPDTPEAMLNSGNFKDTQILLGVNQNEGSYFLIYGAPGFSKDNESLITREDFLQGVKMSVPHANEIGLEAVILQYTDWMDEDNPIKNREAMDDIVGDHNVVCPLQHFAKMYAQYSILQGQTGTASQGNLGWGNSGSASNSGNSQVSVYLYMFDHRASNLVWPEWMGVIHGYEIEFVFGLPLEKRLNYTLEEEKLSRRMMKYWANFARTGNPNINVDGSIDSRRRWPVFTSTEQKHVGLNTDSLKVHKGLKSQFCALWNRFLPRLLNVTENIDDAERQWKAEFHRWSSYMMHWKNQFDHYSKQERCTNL

The term IC50 denotes the concentration at which inhibition is half-maximal. Usually inhibition stands for the change of the read-out against control, counted positive when it falls. `COc1cccc2cc(C(=O)NCCCCNc3c4c(nc5ccccc35)CCCC4)oc12` [Compound 18, 7-Methoxy-N-(4-((1,2,3,4-tetrahydroacridin-9-yl)amino)butyl)benzofuran-2-carboxamide] registered an IC50 in series [1] of 760 nM. Further, the “highest non-toxic concentration selected from dose-response screening” value in series [2] is given as 20 µM. Besides, the inhibition at 80 µM in series [3] worked out at 51.9%.

Consider `O=C(NCCCCNc1c2c(nc3cc(Cl)ccc13)CCCC2)c1cc2ccccc2o1` [Compound 16, N-(4-((6-chloro-1,2,3,4-tetrahydroacridin-9-yl)amino)butyl)benzofuran-2-carboxamide], for which the 50% inhibitory concentration (IC50) in series [1] (setting [6]) is 340 nM. Further, the inhibition at 80 µM in series [3] (setting [7]) was found to be 43%.

For the molecule `Nc1c2c(nc3ccccc13)CCCC2` [TAC, tacrine, reference compound], in series [4], the “Radical scavenging activity EC50 (DPPH)” value is reported as “weak activity”. For the same molecule, the inhibition at 80 µM in series [3] is 20%.

`O=C(NCCCCNc1c2c(nc3ccccc13)CCCC2)c1cc2ccccc2o1` [Compound 14, N-(4-((1,2,3,4-tetrahydroacridin-9-yl)amino)butyl)benzofuran-2-carboxamide]: the IC50 in series [1] (setting [6]) was determined as 720 nM. Besides, the inhibition at 80 µM in series [3] (setting [7]) came out at 51.5%.

For the molecule `O=C(NCCCCNc1c2c(nc3ccccc13)CCCC2)c1cc2cccc(O)c2o1` [Compound 22, 7-Hydroxy-N-(4-((1,2,3,4-tetrahydroacridin-9-yl)amino)butyl)benzofuran-2-carboxamide], in series [1] (setting [6]), the IC50 was 980 nM. Besides, the values for the inhibition at 80 µM in series [5] and in series [3] (setting [7]) were 54% and 30.4%, respectively.

As for `O=C(NCCCNc1c2c(nc3ccccc13)CCCC2)c1cc2ccccc2o1` [Compound 13, N-(3-((1,2,3,4-tetrahydroacridin-9-yl)amino)propyl)benzofuran-2-carboxamide], the IC50 in series [1] (setting [6]) was found to be 580 nM. Moreover, the inhibition at 80 µM in series [3] (setting [7]) came to 60.6%.

As for `O=C(NCCCNc1c2c(nc3cc(Cl)ccc13)CCCC2)c1cc2ccccc2o1` [Compound 15, N-(3-((6-chloro-1,2,3,4-tetrahydroacridin-9-yl)amino)propyl)benzofuran-2-carboxamide], in series [1] (setting [6]), the IC50 is 120 nM. The inhibition at 80 µM in series [3] (setting [7]) is 51%.

As to `COc1cccc2cc(C(=O)NCCCNc3c4c(nc5ccccc35)CCCC4)oc12` [Compound 17, 7-Methoxy-N-(3-((1,2,3,4-tetrahydroacridin-9-yl)amino)propyl)benzofuran-2-carboxamide], in series [1] (setting [6]), the IC50 stood at 360 nM. Besides, the inhibition at 80 µM in series [3] (setting [7]) was found to be 57.5%.

The values are drawn from publication PMC7567501 (Journal of Enzyme Inhibition and Medicinal Chemistry, 2019).
